Test results taken from patent US3993650A, “Pyrrolo [3,4-d] pyrimidines” (Gruppo Lepetit S.p.A., priority 1975, dated 1976).

Test system: carragenin induced edema
Test: carragenin induced edema test in rats (antiinflammatory activity)
Assay type: in vivo
Settings: per os; for decrease of the induced edema: 100 mg/kg; for decrease of the induced edema over the controls: dose levels ranging from about 20 to about 50 mg/kg
Procedure: The compounds of the invention display excellent pharmacological properties; more particularly they are active essentially as antiinflammatories and as prostaglandin synthetase inhibitors. The antiinflammatory activity was investigated through the "carragenin induced edema" test in rats, which was performed following substantially the operative schema proposed by C.A. Winter et al. in Proc. Soc. Expl. Biol. Med., 111, 544, 1962.
It must be noted that a percent decrease of the edema of 30 is absolutely significative from the pharmacological standpoint. Moreover when administered per os at 100 mg/kg the compounds of examples 3 and 7 caused a decrease of the induced edema of about 55%. These very favorable antiinflammatory properties are coupled with a low toxicity, being the LD50 of the compounds of the invention always higher than 500 mg/kg p.o. in mice. Toxicities were determined substantially according to the method described by Lichtfield and Wilcoxon in Journ. Pharm. Expt. Ther., 96, 99 1949.

| Compound | decrease of the induced edema | decrease of the induced edema over the controls |
| --- | --- | --- |
| CCn1c(-c2ccccc2)c2c(C)nc(-c3ccccc3)c-2[nH]c1=O.Cl [Example 3, 3-Ethyl-5-methyl-4,7-diphenyl-1H-pyrrolo[3,4-d]pyrimidine-2(3H)-one hydrochloride] | about 55% | at least 30% |
| CCn1c(-c2ccccc2)c2[nH]c(=O)nc(-c3ccccc3)c2c1C [Example 6, 6-Ethyl-5-methyl-4,7-diphenyl-6H-pyrrolo[3,4-d]pyrimidine-2(1H)-one] | – | at least 30% |
| CCn1c(C)c2c(-c3ccccc3)nc(=O)n(CC)c2c1-c1ccccc1 [Example 7, 1,6-Diethyl-5-methyl-4,7-diphenyl-6H-pyrrolo[3,4-d]pyrimidine-2(1H)-one] | about 55% | at least 30% |
